These molecules were tested against Amyloid-beta precursor protein (Homo sapiens) (UniProt P05067) (assay: Inhibition of Amyloid beta (25 to 35) (unknown origin) polymerization assessed as reduction in beta-amyloid fibril formation at 10 uM after 6 hrs by UV-visible spectroscopy).
Sequence of Amyloid-beta precursor protein (Homo sapiens) (P05067 whole entry): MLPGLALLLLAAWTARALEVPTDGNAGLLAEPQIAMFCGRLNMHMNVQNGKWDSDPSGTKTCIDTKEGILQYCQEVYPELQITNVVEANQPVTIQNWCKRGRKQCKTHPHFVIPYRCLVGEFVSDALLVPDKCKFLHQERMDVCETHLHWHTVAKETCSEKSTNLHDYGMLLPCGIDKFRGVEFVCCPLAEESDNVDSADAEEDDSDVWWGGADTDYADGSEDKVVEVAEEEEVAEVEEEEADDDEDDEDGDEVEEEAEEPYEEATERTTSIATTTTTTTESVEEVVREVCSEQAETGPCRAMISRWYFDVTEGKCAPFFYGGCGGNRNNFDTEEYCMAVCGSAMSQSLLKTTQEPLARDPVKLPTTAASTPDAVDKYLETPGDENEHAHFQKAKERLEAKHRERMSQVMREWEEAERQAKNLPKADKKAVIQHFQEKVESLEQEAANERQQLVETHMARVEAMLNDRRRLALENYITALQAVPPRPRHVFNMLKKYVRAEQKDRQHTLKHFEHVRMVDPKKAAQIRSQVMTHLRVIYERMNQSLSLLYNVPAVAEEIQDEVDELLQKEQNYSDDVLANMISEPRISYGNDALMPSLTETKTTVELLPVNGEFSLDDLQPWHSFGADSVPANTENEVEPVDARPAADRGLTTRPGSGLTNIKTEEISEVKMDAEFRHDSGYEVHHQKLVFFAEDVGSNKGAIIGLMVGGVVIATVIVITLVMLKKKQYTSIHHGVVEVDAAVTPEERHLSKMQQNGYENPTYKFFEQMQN

| inhibition [%] | Structure (SMILES) |
| --- | --- |
| 56 | OC[C@H]1O[C@@H](Oc2ccc(/C=C/c3cc(O)c4c(c3)O[C@@H](c3ccc(O[C@@H]5O[C@H](CO)[C@@H](O)[C@H](O)[C@H]5O)cc3)[C@@H]4c3cc(O)cc(O)c3)cc2)[C@H](O)[C@@H](O)[C@@H]1O |
| 56 | OC[C@H]1O[C@@H](Oc2ccc(/C=C/c3cc(O)c4c(c3)O[C@H](c3ccc(O[C@@H]5O[C@H](CO)[C@@H](O)[C@H](O)[C@H]5O)cc3)[C@H]4c3cc(O)cc(O)c3)cc2)[C@H](O)[C@@H](O)[C@@H]1O |
| 58 | OC[C@H]1O[C@@H](Oc2ccc([C@H]3Oc4cc(/C=C/c5ccc(O)cc5)cc(O)c4[C@@H]3c3cc(O)cc(O)c3)cc2)[C@H](O)[C@@H](O)[C@@H]1O |
| 54 | OC[C@H]1O[C@@H](Oc2ccc(/C=C/c3cc(O)c4c(c3)O[C@H](c3ccc(O)cc3)[C@H]4c3cc(O)cc(O)c3)cc2)[C@H](O)[C@@H](O)[C@@H]1O |

Reference: ChEMBL document CHEMBL3352139, “Unambiguous Determination of the Absolute Configuration of Dimeric Stilbene Glucosides from the Rhizomes of Gnetum africanum” (J Nat Prod, 2014)
